Our source for the IC50 values is patent US20250154169A1, “COMPOUNDS AND METHODS FOR MODULATING SPLICING” (REMIX THERAPEUTICS INC., priority 2021, published 2025).

Counter-ions that a name gives are not always drawn.

For one test, the system named is Target C mRNA. The test can be described thus: Splicing RT-qPCR gene panel, Target C canonical junction (CJ) mRNA. Type of test: cell-based, human. The settings on record: Homo sapiens, Tables 4A/4B, read-out: Target C (IC50, decrease in CJ mRNA, gene panel). A digest of the protocol:
(§1)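 First, A673 cells adhered 24 h before dosing, while K562 cells were plated and dosed directly. Both lines were then exposed to compound for 24 h at 37 °C, 5% CO2, top concentration 10 uM. Finally, lysates underwent RT-qPCR of the canonical junction, with ΔΔCt-based relative quantification.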
(Real-time PCR tracks product formation cycle by cycle.)

The next test deals with HTT mRNA. The test can be described thus: Splicing RT-qPCR gene panel, HTT canonical junction (CJ) mRNA. The note with it: Homo sapiens, Tables 4A/4B, read-out: HTT (IC50, decrease in CJ mRNA, gene panel). The test is classed as cell-based, human. In a few lines:
as §1

A further test relates to SMN2 mRNA. The experiment in a line: Splicing RT-qPCR gene panel, SMN2 canonical junction (CJ) mRNA. The note with it: Homo sapiens, Tables 4A/4B, read-out: SMN2 (IC50, decrease in CJ mRNA, gene panel). Type of test: cell-based, human. A digest of the protocol: as §1
A further test has as its system MYB. The experiment in a line: Protein abundance, HiBit-assay system (Promega), MYB. The test is classed as cell-based. The note with it: Table 6; HiBiT-modified K562 cells, 24 hours. From the text: In some embodiments, a compound of Formula (I) or (II) or a pharmaceutically acceptable salt thereof, e.g., as described herein, modulates the expression of a target protein (e.g., HTT or MYB) in a reference cell or sample. In an embodiment, a compound of Formula (I) or (II) or a pharmaceutically acceptable salt thereof, e.g., as described herein, increases the expression of a target protein (e.g., HTT or MYB) in a reference cell or sample. In an embodiment, a compound of Formula (I) or (II) or a pharmaceutically acceptable salt thereof, e.g., as described herein, decreases the expression of a target protein (e.g., HTT or MYB) in a reference cell or sample. The effect of an exemplary compound of Formula (I) or (II) on protein abundance may be measured using a standard assay for measuring protein abundance, such as the HiBit-assay system (Promega). In this assay, percent response for each respective cell line may be as calculated at each compound concentration as follows: % response=100*(S−PC)/(NC−PC). For the normalized response at each concentration, a four-parameter logistical regression may be fit to the data and the response may be interpolated at the 50% value to determine a concentration for protein abundance at 50% (IC50) an untreated control. In an embodiment, a compound of Formula (I) or (II) or a pharmaceutically acceptable salt thereof, e.g., as described herein, has a protein abundance response less than 100 nM. In an embodiment, a compound of Formula (I) or (II) or a pharmaceutically acceptable salt thereof, e.g., as described herein, has a protein abundance response between 100-1000 nM. In an embodiment, a compound of Formula (I) or (II) or a pharmaceutically acceptable salt thereof, e.g., as described herein, has a protein abundance response greater than 1000 nM. In an embodiment, a compound of Formula (I) or (II) or a pharmaceutically acceptable salt thereof, e.g., as described herein, has a protein abundance response greater than 10 uM. In an embodiment, a compound of Formula (I) or (II) or a pharmaceutically acceptable salt thereof, e.g., as described herein, modulates the protein abundance of a target protein by about 1%, 5%, 10%, 15%, 20%, 25%, 30%, 35%, 40%, 45%, 50%, 55%, 60%, 65%, 70%, 75%, 80%, 85%, 90%, 95%, 99% or more, e.g., compared with a reference compound.
A general note: With HiBiT, luminescence reflects the tagged protein that the partner subunit can reach.

The term IC50 denotes the concentration that inhibits the measured activity by half. Consider `Cc1cn2nc(NC(=O)c3ccc(C4CCNCC4)c4cc(C)oc34)cc(C)c2n1` [Compound 118], for which the IC50 was greater than 10000 nM in the test on Target C mRNA, 1000 to 10000 nM in the test on HTT mRNA, 100 to 1000 nM in the test on SMN2 mRNA and less than 100 nM in the test on MYB.

Regarding `Cc1cn2nc(NC(=O)c3ccc(C4CCNCC4)c4ccoc34)cc(C)c2n1` [Compound 119], the IC50 in the test with Target C mRNA is greater than 10000 nM; with HTT mRNA, 1000 to 10000 nM; in the test on SMN2 mRNA, 100 to 1000 nM; in the test on MYB, 1000 to 10000 nM.

For `Cc1cn2cc(NC(=O)c3ccc(N4CCNCC4)c4nc(C)oc34)cc(F)c2n1` [Compound 140], the IC50 lay in the range of 1000 to 10000 nM with Target C mRNA, 1000 to 10000 nM in the test on HTT mRNA, 100 to 1000 nM with SMN2 mRNA and 1000 to 10000 nM in the test with MYB.

Turning to `Cc1cn2cc(NC(=O)c3ccc(N4CCNCC4)c4oc(C)nc34)cc(F)c2n1` [Compound 141], the half-maximal inhibitory concentration (IC50) is 100 to 1000 nM in the test with Target C mRNA, less than 100 nM in the test with HTT mRNA, less than 100 nM with SMN2 mRNA and 100 to 1000 nM in the test with MYB.

For `Cc1cn2cc(NC(=O)c3ccc(N4CCNCC4)c4cc(C)oc34)cc(F)c2n1` [Compound 142], the IC50 is 100 to 1000 nM in the test on Target C mRNA, 1000 to 10000 nM in the test on HTT mRNA, less than 100 nM in the test on SMN2 mRNA and less than 100 nM with MYB.

With `Cc1cn2cc(NC(=O)c3ccc(N4CCNCC4)c4cn(C)nc34)cc(F)c2n1` [Compound 143, N-{8-fluoro-2-methylimidazo[1,2-a]pyridin-6-yl}-2-methyl-4-(piperazin-1-yl) indazole-7-carboxamide], the IC50 was 100 to 1000 nM in the test with Target C mRNA, less than 100 nM in the test on HTT mRNA, less than 100 nM in the test with SMN2 mRNA and less than 100 nM in the test with MYB.

Consider `Cc1cn2cc(NC(=O)c3ccc(C4CCNCC4)c4cc(C)oc34)cc(F)c2n1` [Compound 145], for which the IC50 in the test with Target C mRNA was 100 to 1000 nM; with HTT mRNA, 1000 to 10000 nM; in the test with SMN2 mRNA, less than 100 nM; in the test with MYB it was less than 100 nM.

Take `Cc1cn2nc(NC(=O)c3ccc(N4CCNCC4)c4cc(C)oc34)cc(C)c2n1` [Compound 148]: the half-inhibitory concentration (IC50) in the test with Target C mRNA fell in the range of 1000 to 10000 nM; with HTT mRNA, 1000 to 10000 nM; with SMN2 mRNA, 100 to 1000 nM; with MYB it was 1000 to 10000 nM.

For the compound `Cc1cn2cc(NC(=O)c3ccc(C4CCNCC4)c4ccoc34)cc(F)c2n1` [Compound 149], the IC50 was greater than 10000 nM in the test with Target C mRNA, 1000 to 10000 nM with HTT mRNA, less than 100 nM in the test with SMN2 mRNA and less than 100 nM in the test on MYB.

In the case of `Cc1cn2cc(NC(=O)c3ccc(N4CCN(C)CC4)c4cc(C)oc34)cc(F)c2n1` [Compound 189], the IC50 in the test with Target C mRNA was 1000 to 10000 nM; in the test on HTT mRNA, 1000 to 10000 nM; in the test on SMN2 mRNA, less than 100 nM; in the test on MYB, 100 to 1000 nM.

Take `Cc1cn2cc(NC(=O)c3ccc(N4CCNC(C)C4)c4cc(C)oc34)cc(F)c2n1` (centres unmarked) [Compound 190]: the IC50 in the test with Target C mRNA is 1000 to 10000 nM; with HTT mRNA, 100 to 1000 nM; in the test with SMN2 mRNA, 100 to 1000 nM; in the test with MYB, less than 100 nM.

Consider `CCn1cc2c(N3CC[C@@H](NC)C3)ccc(C(=O)Nc3cc(Cl)c4nc(C)cn4c3)c2n1` [Compound 556, N-{8-chloro-2-methylimidazo[1,2-a]pyridin-6-yl}-2-ethyl-4-[(3R)-3-(methylamino)pyrrolidin-1-yl]indazole-7-carboxamide], for which the IC50 in the test on MYB fell in the range of 1000 to 10000 nM.

Compound `CCn1cc2c(N3CCC(N)(CC)CC3)cc(F)c(C(=O)Nc3cc(F)c4nc(C)cn4c3)c2n1` [Compound 557, 4-(4-amino-4-ethylpiperidin-1-yl)-2-ethyl-6-fluoro-N-{8-fluoro-2-methylimidazo[1,2-a]pyridin-6-yl}indazole-7-carboxamide] displayed an IC50 in the test with MYB of less than 100 nM.

Regarding `CCn1cc2c(N3CCC(N[C@H]4C[C@@H](O)C4)CC3)ccc(C(=O)Nc3cc(F)c4nc(C)cn4c3)c2n1` [Compound 559, 2-ethyl-N-{8-fluoro-2-methylimidazo[1,2-a]pyridin-6-yl}-4-(4-{[(1s,3s)-3-hydroxycyclobutyl]amino}piperidin-1-yl) indazole-7-carboxamide], the IC50 in the test with MYB was less than 100 nM.

For `CCn1cc2c(N3CCC(N[C@H]4C[C@H](O)C4)CC3)ccc(C(=O)Nc3cc(F)c4nc(C)cn4c3)c2n1` [Compound 560, 2-ethyl-N-{8-fluoro-2-methylimidazo[1,2-a]pyridin-6-yl}-4-(4-{[(1r,3r)-3-hydroxycyclobutyl]amino}piperidin-1-yl) indazole-7-carboxamide], in the test on MYB, the IC50 was less than 100 nM.

As to `Cc1cn2cc(NC(=O)c3ccc(N4CC[C@@H](N5CCNCC5)C4)c4cn(C)nc34)cc(F)c2n1` [Compound 562, N-{8-fluoro-2-methylimidazo[1,2-a]pyridin-6-yl}-2-methyl-4-[(3R)-3-(piperazin-1-yl)pyrrolidin-1-yl]indazole-7-carboxamide hydrochloride], the IC50 in the test with MYB was greater than 10000 nM.

Turning to `Cc1cn2cc(NC(=O)c3ccc(N4CC5NC5C4)c4cn(C)nc34)cc(F)c2n1` (centres unmarked) [Compound 563, 4-{3,6-diazabicyclo[3.1.0]hexan-3-yl}-N-{8-fluoro-2-methylimidazo[1,2-a]pyridin-6-yl}-2-methylindazole-7-carboxamide], the IC50 in the test with MYB is less than 100 nM.

In the test with MYB, `Cc1cn2cc(NC(=O)c3ccc(N4C5CNCC54)c4cn(C)nc34)cc(F)c2n1` (centres unmarked) [Compound 564, 4-{3,6-diazabicyclo[3.1.0]hexan-6-yl}-N-{8-fluoro-2-methylimidazo[1,2-a]pyridin-6-yl}-2-methylindazole-7-carboxamide] had an IC50 of 100 to 1000 nM.

Take `CCn1cc2c(N3CCNCC3)ccc(C(=O)Nc3cc(F)c4nc(C)c(F)n4c3)c2n1` [Compound 565, N-{3,8-difluoro-2-methylimidazo[1,2-a]pyridin-6-yl}-2-ethyl-4-(piperazin-1-yl) indazole-7-carboxamide; trifluoroacetic acid]: the 50% inhibitory concentration (IC50) with MYB was in the range of 1000 to 10000 nM.

Take `CCn1cc2c(N3CCNCC3)ccc(C(=O)Nc3cn4cc(C)nc4c(Oc4ccccc4)n3)c2n1` [Compound 566, 2-ethyl-N-{2-methyl-8-phenoxyimidazo[1,2-a]pyrazin-6-yl}-4-(piperazin-1-yl) indazole-7-carboxamide]: the IC50 in the test with MYB was in the range of 100 to 1000 nM.

With `Cc1cn2cc(NC(=O)c3ccc(N4CC[C@@H](NC56CC(C5)C6)C4)c4cn(C)nc34)cc(F)c2n1` [Compound 568, 4-[(3R)-3-{bicyclo[1.1.1]pentan-1-ylamino}pyrrolidin-1-yl]-N-{8-fluoro-2-methylimidazo[1,2-a]pyridin-6-yl}-2-methylindazole-7-carboxamide], the IC50 in the test on MYB fell in the range of 1000 to 10000 nM.

In the case of `CCn1cc2c(N3CCC(NC4CC4)C3)cc(F)c(C(=O)Nc3cc(F)c4nc(C)cn4c3)c2n1` (centres unmarked) [Compound 569, 4-[3-(cyclopropylamino)pyrrolidin-1-yl]-2-ethyl-6-fluoro-N-{8-fluoro-2-methylimidazo[1,2-a]pyridin-6-yl}indazole-7-carboxamide], the IC50 in the test on MYB is less than 100 nM.

Compound `Cc1cn2cc(NC(=O)c3c(F)cc(N4CC[C@@H](NC5CC5)C4)c4cn(C)nc34)cc(F)c2n1` [Compound 571, 4-[(3R)-3-(cyclopropylamino)pyrrolidin-1-yl]-6-fluoro-N-{8-fluoro-2-methylimidazo[1,2-a]pyridin-6-yl}-2-methylindazole-7-carboxamide] gave an IC50 with MYB of less than 100 nM.

In the test on MYB, `Cc1cn2cc(NC(=O)c3ccc(N4CC[C@@H](NCc5cnc(Cl)nc5)C4)c4cn(C)nc34)cc(F)c2n1` [Compound 573, 4-[(3R)-3-{[(2-chloropyrimidin-5-yl)methyl]amino}pyrrolidin-1-yl]-N-{8-fluoro-2-methylimidazo[1,2-a]pyridin-6-yl}-2-methylindazole-7-carboxamide] displayed a half-inhibitory concentration (IC50) of 1000 to 10000 nM.

Regarding `Cc1cn2cc(NC(=O)c3ccc(N4CCC(C)(NC(C)C)C4)c4cn(C)nc34)cc(F)c2n1` (centres unmarked) [Compound 574], the IC50 with MYB is 100 to 1000 nM.

Regarding `CCn1cc2c(N3CCNCC3)ccc(C(=O)Nc3cc(F)c4ncccc4c3)c2n1` [Compound 575], the IC50 in the test on MYB fell in the range of 1000 to 10000 nM.
